What was measured:
Sigma1 = assay: radioligand competition binding
PBR = assay: radioligand competition binding
Sigma2 = assay: radioligand competition binding
D5 = D5 (Homo sapiens, UniProt P21918); assay: biochemical
DAT = DAT (Homo sapiens, UniProt Q01959); assay: biochemical
DOR = DOR (Homo sapiens, UniProt P41143); assay: biochemical
HERG = HERG (Homo sapiens, UniProt Q12809); assay: biochemical
NOP = NOP (Homo sapiens, UniProt P41146); assay: biochemical
β1 = β1 (Homo sapiens, UniProt P08588); assay: biochemical
β3 = β3 (Homo sapiens, UniProt P13945); assay: biochemical
Chain of β3 (P13945 whole entry): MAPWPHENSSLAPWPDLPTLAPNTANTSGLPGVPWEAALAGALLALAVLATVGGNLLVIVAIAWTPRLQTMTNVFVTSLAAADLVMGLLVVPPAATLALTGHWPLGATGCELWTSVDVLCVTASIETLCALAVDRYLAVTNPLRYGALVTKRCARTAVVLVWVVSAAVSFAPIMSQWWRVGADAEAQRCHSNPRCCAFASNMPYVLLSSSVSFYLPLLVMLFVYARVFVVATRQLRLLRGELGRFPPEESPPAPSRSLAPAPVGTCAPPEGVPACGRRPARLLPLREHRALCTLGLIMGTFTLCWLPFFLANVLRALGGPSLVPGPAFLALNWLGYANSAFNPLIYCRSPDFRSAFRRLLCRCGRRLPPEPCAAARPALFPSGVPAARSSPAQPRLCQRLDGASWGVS

Chain of DOR (P41143 whole entry): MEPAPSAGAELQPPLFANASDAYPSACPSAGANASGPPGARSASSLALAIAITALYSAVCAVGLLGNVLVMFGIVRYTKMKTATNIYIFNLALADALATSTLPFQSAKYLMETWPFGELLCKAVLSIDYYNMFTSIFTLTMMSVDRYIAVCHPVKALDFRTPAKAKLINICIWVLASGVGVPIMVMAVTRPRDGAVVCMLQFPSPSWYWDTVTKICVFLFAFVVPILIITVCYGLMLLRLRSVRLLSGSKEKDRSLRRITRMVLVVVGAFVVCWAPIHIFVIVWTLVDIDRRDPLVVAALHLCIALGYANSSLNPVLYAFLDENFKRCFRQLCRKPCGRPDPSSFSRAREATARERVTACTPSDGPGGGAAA
Chain of D5 (P21918 whole entry): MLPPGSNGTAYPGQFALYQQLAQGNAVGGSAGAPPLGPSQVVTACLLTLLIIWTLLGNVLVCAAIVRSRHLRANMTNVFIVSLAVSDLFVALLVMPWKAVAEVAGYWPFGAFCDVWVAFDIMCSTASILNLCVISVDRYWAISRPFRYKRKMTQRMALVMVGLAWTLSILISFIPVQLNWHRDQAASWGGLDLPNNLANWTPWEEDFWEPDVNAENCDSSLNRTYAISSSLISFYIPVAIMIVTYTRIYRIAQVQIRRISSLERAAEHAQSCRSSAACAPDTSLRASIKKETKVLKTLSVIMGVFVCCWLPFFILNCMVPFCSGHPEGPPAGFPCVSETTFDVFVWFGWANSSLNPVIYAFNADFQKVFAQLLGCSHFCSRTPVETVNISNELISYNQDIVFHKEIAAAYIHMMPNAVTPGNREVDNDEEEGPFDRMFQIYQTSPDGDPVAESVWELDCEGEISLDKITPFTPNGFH
Chain of DAT (Q01959 whole entry): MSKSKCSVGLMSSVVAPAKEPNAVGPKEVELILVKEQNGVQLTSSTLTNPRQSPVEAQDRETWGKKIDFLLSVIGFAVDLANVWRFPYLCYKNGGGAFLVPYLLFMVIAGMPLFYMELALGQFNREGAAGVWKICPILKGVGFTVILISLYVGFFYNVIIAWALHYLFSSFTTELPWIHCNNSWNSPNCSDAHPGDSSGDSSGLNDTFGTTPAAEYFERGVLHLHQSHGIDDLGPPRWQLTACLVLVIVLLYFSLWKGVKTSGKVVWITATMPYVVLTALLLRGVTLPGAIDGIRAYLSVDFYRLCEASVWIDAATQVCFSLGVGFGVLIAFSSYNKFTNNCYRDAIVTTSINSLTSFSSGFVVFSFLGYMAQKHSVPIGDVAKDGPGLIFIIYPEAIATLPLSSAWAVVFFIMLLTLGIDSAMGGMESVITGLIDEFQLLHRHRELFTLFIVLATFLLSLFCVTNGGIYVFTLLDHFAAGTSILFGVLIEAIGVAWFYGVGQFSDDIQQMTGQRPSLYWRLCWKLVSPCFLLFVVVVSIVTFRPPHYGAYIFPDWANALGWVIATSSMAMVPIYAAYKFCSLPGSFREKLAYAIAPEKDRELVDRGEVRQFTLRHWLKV
Chain of β1 (P08588 whole entry): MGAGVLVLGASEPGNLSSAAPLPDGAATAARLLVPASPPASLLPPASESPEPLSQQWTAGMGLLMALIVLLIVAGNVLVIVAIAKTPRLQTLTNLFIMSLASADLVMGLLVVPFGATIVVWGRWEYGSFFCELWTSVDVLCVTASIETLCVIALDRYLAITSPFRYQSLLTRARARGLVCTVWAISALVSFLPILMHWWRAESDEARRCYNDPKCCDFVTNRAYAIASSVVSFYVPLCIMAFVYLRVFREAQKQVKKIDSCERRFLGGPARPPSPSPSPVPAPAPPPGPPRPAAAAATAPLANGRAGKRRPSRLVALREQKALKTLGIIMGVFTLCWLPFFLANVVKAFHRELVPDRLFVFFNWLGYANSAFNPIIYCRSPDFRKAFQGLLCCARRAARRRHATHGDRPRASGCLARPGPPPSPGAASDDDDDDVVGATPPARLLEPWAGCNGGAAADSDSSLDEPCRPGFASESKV
Chain of HERG (Q12809 whole entry): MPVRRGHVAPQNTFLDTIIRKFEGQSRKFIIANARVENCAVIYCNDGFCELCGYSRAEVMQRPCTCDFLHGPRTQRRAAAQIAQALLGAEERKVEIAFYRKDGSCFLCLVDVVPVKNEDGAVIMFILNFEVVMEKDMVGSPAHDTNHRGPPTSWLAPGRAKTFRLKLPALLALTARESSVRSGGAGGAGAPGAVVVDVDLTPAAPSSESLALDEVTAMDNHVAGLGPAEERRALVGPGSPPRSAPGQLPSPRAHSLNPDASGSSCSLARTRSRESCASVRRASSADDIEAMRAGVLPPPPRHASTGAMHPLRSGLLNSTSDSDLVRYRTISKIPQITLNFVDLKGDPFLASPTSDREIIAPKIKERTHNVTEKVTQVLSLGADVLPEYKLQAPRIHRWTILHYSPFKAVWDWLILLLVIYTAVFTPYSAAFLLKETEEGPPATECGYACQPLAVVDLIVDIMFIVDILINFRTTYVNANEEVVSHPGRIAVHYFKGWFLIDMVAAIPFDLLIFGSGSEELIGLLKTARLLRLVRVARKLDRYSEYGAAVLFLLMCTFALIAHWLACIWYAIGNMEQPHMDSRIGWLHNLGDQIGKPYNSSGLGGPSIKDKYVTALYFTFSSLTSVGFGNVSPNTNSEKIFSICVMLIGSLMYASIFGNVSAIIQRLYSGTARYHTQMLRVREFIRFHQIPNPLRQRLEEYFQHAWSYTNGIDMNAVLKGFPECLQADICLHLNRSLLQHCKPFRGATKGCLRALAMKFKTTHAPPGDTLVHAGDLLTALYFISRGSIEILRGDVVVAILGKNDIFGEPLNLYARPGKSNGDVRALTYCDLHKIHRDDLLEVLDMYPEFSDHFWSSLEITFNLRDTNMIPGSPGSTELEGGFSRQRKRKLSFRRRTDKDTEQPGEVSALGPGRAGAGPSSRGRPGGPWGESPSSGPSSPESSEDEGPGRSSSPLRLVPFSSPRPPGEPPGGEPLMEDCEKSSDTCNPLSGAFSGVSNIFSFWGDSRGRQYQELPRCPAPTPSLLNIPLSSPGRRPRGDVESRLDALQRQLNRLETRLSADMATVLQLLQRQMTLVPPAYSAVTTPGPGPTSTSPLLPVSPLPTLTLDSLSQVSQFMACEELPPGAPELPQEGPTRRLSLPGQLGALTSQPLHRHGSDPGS
Chain of NOP (P41146 whole entry): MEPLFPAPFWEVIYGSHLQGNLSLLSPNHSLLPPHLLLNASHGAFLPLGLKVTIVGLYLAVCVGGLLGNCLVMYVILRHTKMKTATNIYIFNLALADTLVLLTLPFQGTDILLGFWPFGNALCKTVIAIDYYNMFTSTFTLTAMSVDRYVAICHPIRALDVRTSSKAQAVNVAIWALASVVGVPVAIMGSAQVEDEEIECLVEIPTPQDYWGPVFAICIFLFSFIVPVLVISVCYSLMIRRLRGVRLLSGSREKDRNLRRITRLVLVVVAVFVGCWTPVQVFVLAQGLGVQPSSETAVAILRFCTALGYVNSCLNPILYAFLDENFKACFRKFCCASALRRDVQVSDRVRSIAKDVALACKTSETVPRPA

SMILES: COc1cc(CCNCc2ccccc2OCCF)c(OC)cc1Br [compound 1, 2-(4-bromo-2,5-dimethoxyphenyl)-N-(2-(2-fluoroethoxy)benzyl)ethanamine]
- Ki (Sigma1): 0.499 µM
- Ki (PBR): 0.876 µM
- Ki (Sigma2): 0.051 µM
- Ki (D5): > 10 µM
- Ki (DAT): > 10 µM
- Ki (DOR): > 10 µM
- Ki (HERG): > 10 µM
- Ki (NOP): > 10 µM
- Ki (β1): > 10 µM
- Ki (β3): > 10 µM
